Data as given in the NIST ThermoML archive (doi:10.1016/j.jct.2016.11.002).

Key:
[1] = xn = mol fraction of the nth substance listed; settings: 100 kPa, Liquid; for speed of sound: Frequency=3 MHz, Single path-length method; for mass density: Vibrating tube method
[2] = refractive index (Na D-line) (dimensionless); xn = mol fraction of the nth substance listed; settings: 100 kPa, Liquid, Standard Abbe refractometry

CCCOCCO [2-propoxyethanol] + CCOC(=O)OCC
Settings	mass density, [1] [kg/m3]	refractive index, [2]	speed of sound, [1] [m/s]
298.15 K, x2 = 0	907.16	1.4103	1300.9
298.15 K, x2 = 0.0881	912.3	1.4089	1289.1
298.15 K, x2 = 0.1907	918.42	1.4074	1276.1
298.15 K, x2 = 0.2866	924.17	1.4062	1264
298.15 K, x2 = 0.3906	930.48	1.4046	1250.3
298.15 K, x2 = 0.484	936.17	1.4023	1237.8
298.15 K, x2 = 0.5955	943.04	1.3988	1223.4
298.15 K, x2 = 0.6907	948.97	1.3953	1211.7
298.15 K, x2 = 0.7908	955.29	1.3914	1200
298.15 K, x2 = 0.8939	961.94	1.3871	1188.5
303.15 K, x2 = 0	902.74	1.4081	1283.7
303.15 K, x2 = 0.0881	907.76	1.4068	1271.7
303.15 K, x2 = 0.1907	913.74	1.4054	1258.2
303.15 K, x2 = 0.2866	919.36	1.4042	1245.6
303.15 K, x2 = 0.3906	925.55	1.4026	1231.5
303.15 K, x2 = 0.484	931.11	1.4004	1218.7
303.15 K, x2 = 0.5955	937.84	1.3968	1203.9
303.15 K, x2 = 0.6907	943.65	1.3933	1192
303.15 K, x2 = 0.7908	949.85	1.3894	1180.1
303.15 K, x2 = 0.8939	956.4	1.385	1168.3
308.15 K, x2 = 0	898.32	1.4058	1266.4
308.15 K, x2 = 0.0881	903.19	1.4046	1254.2
308.15 K, x2 = 0.1907	909.01	1.4034	1240.2
308.15 K, x2 = 0.2866	914.52	1.4023	1227.1
308.15 K, x2 = 0.3906	920.55	1.4006	1212.7
308.15 K, x2 = 0.484	926.02	1.3984	1199.7
308.15 K, x2 = 0.5955	932.6	1.3948	1184.6
308.15 K, x2 = 0.6907	938.31	1.3912	1172.3
308.15 K, x2 = 0.7908	944.38	1.3873	1160.2
308.15 K, x2 = 0.8939	950.83	1.3828	1148.2
313.15 K, x2 = 0	893.89	1.4034	1249.2
313.15 K, x2 = 0.0881	898.63	1.4024	1236.8
313.15 K, x2 = 0.1907	904.33	1.4014	1222.3
313.15 K, x2 = 0.2866	909.68	1.4004	1208.8
313.15 K, x2 = 0.3906	915.57	1.3987	1194
313.15 K, x2 = 0.484	920.91	1.3964	1180.7
313.15 K, x2 = 0.5955	927.35	1.3928	1165.3
313.15 K, x2 = 0.6907	932.94	1.3892	1152.9
313.15 K, x2 = 0.7908	938.9	1.3851	1140.5
313.15 K, x2 = 0.8939	945.23	1.3805	1128.3
318.15 K, x2 = 0	889.45	1.4011	1231.9
318.15 K, x2 = 0.0881	894.03	1.4003	1219.3
318.15 K, x2 = 0.1907	899.58	1.3995	1204.5
318.15 K, x2 = 0.2866	904.8	1.3985	1190.6
318.15 K, x2 = 0.3906	910.54	1.3967	1175.3
318.15 K, x2 = 0.484	915.74	1.3944	1161.8
318.15 K, x2 = 0.5955	922.05	1.3908	1146.2
318.15 K, x2 = 0.6907	927.53	1.3872	1133.5
318.15 K, x2 = 0.7908	933.4	1.3831	1121
318.15 K, x2 = 0.8939	939.63	1.3782	1108.6
323.15 K, x2 = 0	885	1.3988	1215
323.15 K, x2 = 0.0881	889.44	1.3982	1201.9
323.15 K, x2 = 0.1907	894.82	1.3975	1186.8
323.15 K, x2 = 0.2866	899.91	1.3966	1172.5
323.15 K, x2 = 0.3906	905.53	1.3947	1156.9
323.15 K, x2 = 0.484	910.62	1.3924	1143.2
323.15 K, x2 = 0.5955	916.75	1.3888	1127.3
323.15 K, x2 = 0.6907	922.11	1.3852	1114.5
323.15 K, x2 = 0.7908	927.83	1.3809	1101.7
323.15 K, x2 = 0.8939	933.96	1.376	1089
